The numbers were not newly measured in patent US9211237B2, “Film foaming hydroalcoholic foam” (STIEFEL RESEARCH AUSTRALIA PTY LTD, priority 2003, dated 2015), which cites them from elsewhere.

For this data set the following is noted: UV absorber.

`CCCCC(CC)COC(=O)C=Cc1ccc(OC)cc1` (centres unmarked) [Parsol MCX, octinoxate]: the maximum absorption is given as 308 nm.
Regarding `COc1ccc(C(=O)CC(=O)c2ccc(C(C)(C)C)cc2)cc1` [Parsol 1789, butyl methoxydibenzolymethane], the maximum absorption was about 360 nm.
